What was measured:
carbonic anhydrase B = carbonic anhydrase B (Homo sapiens, UniProt P00915); assay: Carbonic anhydrase esterase inhibition (spectrophotometric rate of hydrolysis of 1 mM p-nitrophenyl acetate); type: biochemical; conditions: read-out: Carbonic Anhydase Esterase Inhibition IC50
Procedure: It is generally known that carbonic anhydrase inhibitors are useful for the treatment of glaucoma. The carbonic anhydrase inhibitory activities have been evaluated by spectrophotometrically measuring the rate of hydrolysis of 1 mM p-nitrophenyl acetate catalyzed by carbonic anhydrase B according to the procedure described in J. Armstrong et al., J. Biol. Chem., Vol 241, No. 21, pp 5137-5149 (1966).

[1] = system: intraocular pressure in alpha-chymotrypsin-induced ocular hypertensive rabbit eyes; assay: Alpha-chymotrypsin-induced ocular hypertension, maximum intraocular pressure drop; type: in vivo, New Zealand White rabbits
Procedure: This is done by the direct injection of the proteolytic enzyme, alpha-chymotrypsin into the posterior chamber of the rabbit eye.
Ocular hypertension is elicited in New Zealand White rabbits (2.0-2.5 kg) by the injection of alpha-chymotrypsin into the posterior chamber as described by Sears and Sears (Am. J. Ophthalmol. 77, 378-383, (1974). Briefly, the animals are pretreated with indomethacin (10 mg/kg i.p.) to prevent the otherwise immediate onset of inflammation. One hour later, the rabbits are anesthetized with a 2 ml intramuscular injection of a 50:50 mixture of xylazine (20 mg/kg) and ketamine (100 mg/kg). The eyes are individually proptosed and treated topically with 50 microliters of 0.5% proparacaine. The anterior chamber is cannulated with a 30-gauge needle attached to a reservoir set at a pressure of 25 mmHg. Then, 0.5 ml of alpha-chymotrypsin (350 units) is injected through the pupil near the limbus and into the posterior chamber using an S-curved, 30-gauge needle. During the injection, the tip of the needle is swept across the posterior chamber to distribute the enzyme. Care is taken to avoid injection of any enzyme into the corneal stroma. Both needles can then be carefully removed to prevent any significant loss of aqueous humor.
The eyes are examined biweekly for corneal lacerations and overt inflammatory responses. […] The intraocular pressures of the operated rabbits are checked approximately four weeks posttreatment. […]. Generally, about 50% of the operated eyes are suitable for study. Intraocular pressure is measured with a standard instrument and the results are expressed in terms of maximum (over measurment time) percentage drop of intraocular pressure.

Sequence of carbonic anhydrase B (P00915 2-261 limits assumed): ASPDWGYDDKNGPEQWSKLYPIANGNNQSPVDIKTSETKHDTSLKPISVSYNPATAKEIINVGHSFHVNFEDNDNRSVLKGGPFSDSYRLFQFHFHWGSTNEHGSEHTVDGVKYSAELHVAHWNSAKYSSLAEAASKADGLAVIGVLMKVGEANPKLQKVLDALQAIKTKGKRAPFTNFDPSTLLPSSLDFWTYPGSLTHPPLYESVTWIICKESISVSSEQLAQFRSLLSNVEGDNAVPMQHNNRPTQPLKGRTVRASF

SMILES	IC50 (carbonic anhydrase B)	Maximum Intraocular Pressure Drop ([1]; at 0.3%)	Maximum Intraocular Pressure Drop ([1]; at 3%)	Maximum Intraocular Pressure Drop ([1]; at 0.5%)	Maximum Intraocular Pressure Drop ([1]; at 1.0%)
COC(=NS(=O)(=O)c1nc(-c2ccccc2Cl)ns1)C(C)C [N-(1-Methoxy-2-methylpropylidene)-3-(2-chlorophenyl)-1,2,4-thiadiazole-5-sulfonamide]	0.4 µM	13%	26%		
CC(C)(C)NC[C@H](O)COc1nsnc1N1CCOCC1 [Timolol, reference compound]				27.5%	28.0%
NS(=O)(=O)c1nc(-c2ccccc2Cl)ns1 [3-(2-Chlorophenyl)-1,2,4-thiadiazole-5-sulfonamide]	0.27 µM	24.8%			

Source: patent publication US4985450A, “Arylthiadiazolylsulfonamides and derivatives” (priority 1989, dated 1991)
